# According to patent US20050245399A1, “Pyrazole derivatives as herbicidal compositions containing them” (ISHIHARA SANGYO KAISHA, LTD., priority 2004, published 2005):
# Tested on: redroot pigweed (Amaranthus retroflexus L.): AMARE
# Test: Test Example 1 pre-emergence herbicidal activity, AMARE
# Format: in vivo
# Settings: Rate 63 g a.i./ha, visually observed 20th to 23rd day after application
# Description: (§1) Upland field soil was put into a 1/170,000 ha pot, and seeds of various plants {1. barnyardgrass (Echinochloa crus-galli L.): ECHCG, 2. crabgrass (Digitaria sanguinalis L.): DIGSA, 3. green foxtail (Setaria viridis L.): SETVI, 4. redroot pigweed (Amaranthus retroflexus L.): AMARE, 5. prickly sida (Sida spinosa L.): SEDSP, 6. velvetleaf (Abutilon theophrasti): ABUTH, 7. common cocklebur (Xanthium strumarium L.): XANST, 8. rice (Oryza sativa L.): ORYSA, 9. wheat (Triticum aestivum L.): TRZAX, 10. corn (Zea mays L.): ZEAMX, 11. soybean (Glycine max Merr.): GLXMA} were sown. Then, one day after the sowing, a wettable powder or emulsifiable concentrate having the compound of the present invention formulated in accordance with a usual formulation method, was weighed so that the active ingredient would be a predetermined amount and diluted with water in an amount of 500 L/ha. The herbicide adjusted was applied by a small size sprayer for preemergence treatment. On the 20th to 23rd day after the application of the herbicide, the growth of the respective plants was visually observed, and the herbicidal effects were evaluated by growth controlling degrees (%) ranging from 0 (equivalent to the untreated control) to 100 (complete kill), whereby the results shown in Table 4, were obtained. Compound Nos. in Table 4 correspond to Compound Nos. in Table 1 and 2 given hereinbefore.
row,Compound,Pre-emergence Herbicidal Activity AMARE (growth controlling degree) [%]
1,COc1c(Cl)cc(F)c(-c2nn(C)c(OC(F)F)c2Cl)c1NC(=O)C(C)Cc1ccccc1 (centres unmarked) [Compound 1-268],100
2,COc1c(Cl)cc(F)c(-c2nn(C)c(OC(F)F)c2Cl)c1NC(=O)CCc1ccccc1F [Compound 1-269],100

# Tested on: wheat (Triticum aestivum L.): TRZAX
# Test: Test Example 1 pre-emergence herbicidal activity, TRZAX
# Format: in vivo
# Settings: Rate 63 g a.i./ha, visually observed 20th to 23rd day after application
# Description: as §1
row,Compound,Pre-emergence Herbicidal Activity TRZAX (growth controlling degree) [%]
1,COc1c(Cl)cc(F)c(-c2nn(C)c(OC(F)F)c2Cl)c1NC(=O)C(C)Cc1ccccc1 (centres unmarked) [Compound 1-268],20
2,COc1c(Cl)cc(F)c(-c2nn(C)c(OC(F)F)c2Cl)c1NC(=O)CCc1ccccc1F [Compound 1-269],40

# Tested on: crabgrass (Digitaria sanguinalis L.): DIGSA
# Test: Test Example 1 pre-emergence herbicidal activity, DIGSA
# Format: in vivo
# Settings: Rate 63 g a.i./ha, visually observed 20th to 23rd day after application
# Description: as §1
row,Compound,Pre-emergence Herbicidal Activity DIGSP (growth controlling degree) [%]
1,COc1c(Cl)cc(F)c(-c2nn(C)c(OC(F)F)c2Cl)c1NC(=O)C(C)Cc1ccccc1 (centres unmarked) [Compound 1-268],100
2,COc1c(Cl)cc(F)c(-c2nn(C)c(OC(F)F)c2Cl)c1NC(=O)CCc1ccccc1F [Compound 1-269],100

# Tested on: corn (Zea mays L.): ZEAMX
# Test: Test Example 1 pre-emergence herbicidal activity, ZEAMX
# Format: in vivo
# Settings: Rate 63 g a.i./ha, visually observed 20th to 23rd day after application
# Description: as §1
row,Compound,Pre-emergence Herbicidal Activity ZEAMX (growth controlling degree) [%]
1,COc1c(Cl)cc(F)c(-c2nn(C)c(OC(F)F)c2Cl)c1NC(=O)C(C)Cc1ccccc1 (centres unmarked) [Compound 1-268],0
2,COc1c(Cl)cc(F)c(-c2nn(C)c(OC(F)F)c2Cl)c1NC(=O)CCc1ccccc1F [Compound 1-269],10

# Tested on: velvetleaf (Abutilon theophrasti): ABUTH
# Test: Test Example 1 pre-emergence herbicidal activity, ABUTH
# Format: in vivo
# Settings: Rate 63 g a.i./ha, visually observed 20th to 23rd day after application
# Description: as §1
row,Compound,Pre-emergence Herbicidal Activity ABUTH (growth controlling degree) [%]
1,COc1c(Cl)cc(F)c(-c2nn(C)c(OC(F)F)c2Cl)c1NC(=O)C(C)Cc1ccccc1 (centres unmarked) [Compound 1-268],80
2,COc1c(Cl)cc(F)c(-c2nn(C)c(OC(F)F)c2Cl)c1NC(=O)CCc1ccccc1F [Compound 1-269],80

# Tested on: rice (Oryza sativa L.): ORYSA
# Test: Test Example 1 pre-emergence herbicidal activity, ORYSA
# Format: in vivo
# Settings: Rate 63 g a.i./ha, visually observed 20th to 23rd day after application
# Description: as §1
row,Compound,Pre-emergence Herbicidal Activity ORYSA (growth controlling degree) [%]
1,COc1c(Cl)cc(F)c(-c2nn(C)c(OC(F)F)c2Cl)c1NC(=O)C(C)Cc1ccccc1 (centres unmarked) [Compound 1-268],30
2,COc1c(Cl)cc(F)c(-c2nn(C)c(OC(F)F)c2Cl)c1NC(=O)CCc1ccccc1F [Compound 1-269],40

# Tested on: barnyardgrass (Echinochloa crus-galli L.): ECHCG
# Test: Test Example 1 pre-emergence herbicidal activity, ECHCG
# Format: in vivo
# Settings: Rate 63 g a.i./ha, visually observed 20th to 23rd day after application
# Description: as §1
row,Compound,Pre-emergence Herbicidal Activity ECHCG (growth controlling degree) [%]
1,COc1c(Cl)cc(F)c(-c2nn(C)c(OC(F)F)c2Cl)c1NC(=O)C(C)Cc1ccccc1 (centres unmarked) [Compound 1-268],40
2,COc1c(Cl)cc(F)c(-c2nn(C)c(OC(F)F)c2Cl)c1NC(=O)CCc1ccccc1F [Compound 1-269],80

# Tested on: prickly sida (Sida spinosa L.): SEDSP
# Test: Test Example 1 pre-emergence herbicidal activity, SIDSP
# Format: in vivo
# Settings: Rate 63 g a.i./ha, visually observed 20th to 23rd day after application
# Description: as §1
row,Compound,Pre-emergence Herbicidal Activity SIDSP (growth controlling degree) [%]
1,COc1c(Cl)cc(F)c(-c2nn(C)c(OC(F)F)c2Cl)c1NC(=O)C(C)Cc1ccccc1 (centres unmarked) [Compound 1-268],70
2,COc1c(Cl)cc(F)c(-c2nn(C)c(OC(F)F)c2Cl)c1NC(=O)CCc1ccccc1F [Compound 1-269],100

# Tested on: soybean (Glycine max Merr.): GLXMA
# Test: Test Example 1 pre-emergence herbicidal activity, GLXMA
# Format: in vivo
# Settings: Rate 63 g a.i./ha, visually observed 20th to 23rd day after application
# Description: as §1
row,Compound,Pre-emergence Herbicidal Activity GLXMA (growth controlling degree) [%]
1,COc1c(Cl)cc(F)c(-c2nn(C)c(OC(F)F)c2Cl)c1NC(=O)C(C)Cc1ccccc1 (centres unmarked) [Compound 1-268],0
2,COc1c(Cl)cc(F)c(-c2nn(C)c(OC(F)F)c2Cl)c1NC(=O)CCc1ccccc1F [Compound 1-269],0

# Tested on: green foxtail (Setaria viridis L.): SETVI
# Test: Test Example 1 pre-emergence herbicidal activity, SETVI
# Format: in vivo
# Settings: Rate 63 g a.i./ha, visually observed 20th to 23rd day after application
# Description: as §1
row,Compound,Pre-emergence Herbicidal Activity SETVI (growth controlling degree) [%]
1,COc1c(Cl)cc(F)c(-c2nn(C)c(OC(F)F)c2Cl)c1NC(=O)C(C)Cc1ccccc1 (centres unmarked) [Compound 1-268],80
2,COc1c(Cl)cc(F)c(-c2nn(C)c(OC(F)F)c2Cl)c1NC(=O)CCc1ccccc1F [Compound 1-269],100
